Assay results published in patent US20130253179A1, “Functionalization Processes and Reactants Used in Such Processes Using an Isatoic Anhydride or a Derivative Thereof, Biological Molecules Thus Treated and Kits” (priority 2010, published 2013).
≈ marks a conversion by molar mass, not a printed value.

What was measured:
[1] = system: model oligoribonucleotide (ORN) with 27 bases; experiment: Functionalisation of a model ORN with 27 bases: functionalisation rate and regiospecificity by HPLC/LC-MS after nuclease P1/alkaline phosphatase hydrolysis; assay type: biochemical; conditions: compound 30 mM, 1 h at 65° C., 250 mM TEAAc pH 7, 25% DMSO; for Fr (corrected functionalisation rate): ORN 8 nmol
From the text: For this purpose, a fixed quantity of ORN is reacted with an isatoic anhydride derivative conjugated to a molecule of interest (Cy3 IA Me (13)), under various temperature conditions, duration conditions, reaction medium conditions, etc. HPLC monitoring of the reaction at 260 nm makes it possible to detect the disappearance of the peak corresponding to the initial ORN and the appearance of peaks corresponding to acylated ORN. These products have a greater retention time and have an absorption spectrum corresponding to both that of ORN and that of the fluorescent label.
However, for greater precision on the functionalisation site and to precisely evaluate the functionalisation rate (Fr), the ORN population (labelled and unlabelled) is separated from the excess label by precipitation with acetone/lithium perchlorate or by gel permeation (NAP 5™, GE Health Care. Then the ORNs thus obtained are submitted to hydrolysis with the nuclease P1 (Aldrich, Saint Louis, USA) and with the alkaline phosphatase (Aldrich, Saint Louis, USA), in order to hydrolyse the phosphate diester bonds of ORN.
The ORN functionalisation rate (Fr) is evaluated by measuring: • the area corresponding to the terminal mononucleoside adducts (functionalised at 2′ and at 3′) and the area corresponding to the acylated dinucleosides (functionalised internally on 2′OH) • compared to the area of the peaks corresponding to the four ribonucleosides.
The internal/external regiospecificity of the acylation is evaluated by measuring the relative proportion of the areas corresponding to the: • end mono-nucleotides acylated at 2′ and at 3′ • and di-nucleotides acylated internally on 2′OH • which are easily detectable by HPLC.
The mixture is incubated for 60 minutes at 65° C. in an oven on a rack which is temperature-balanced in advance. An HPLC injection (conditions 3) makes it possible to monitor a formation of a certain quantity of acylated ORN as described in FIG. 6. To eliminate the salts and the excess label, the mixture is then purified on Sephadex NAP 5 gel (GE Health Care, Uppsala, Sweden)) and/or triple precipitation in 1.2 mL of a 180 mM Acetone/LiClO4 75/25 mixture. To finish, the pellet is dried with acetone and is evaporated with the centrifugal evaporator (RCT 60, Jouan, St Herblain, France). The residue is then taken up in 33 μL of a H2O/DMSO 85/15 solution and an HPLC injection (conditions 3) is performed in order to verify the proper elimination of the label. There is added to the mixture 2 μL of nuclease P1 (ref.: N8630 Sigma-Aldrich, St Louis, USA) in 1 U/μl solution in its buffer: 20 mM sodium acetate pH 5.5; 1 mM ZnCl2; 50 mM NaCl and 1 μL of 7 u/μl alkaline phosphatase in water (Ref. P7923-2KU Sigma-Aldrich, St Louis, USA). The medium is left at ambient temperature for 4 to 6 hours. It is then injected into HPLC (conditions 3) in order to verify the total hydrolysis of the ORN and in order to analyse the nature of the fragments obtained in accordance with what was described above and as described in FIG. 6.
The functionalisation rate is evaluated with UV at 260 nm by integration of the clusters corresponding to the acylated dinucleotides and to the acylated nucleosides) relative to the clusters corresponding to the four ribonucleosides. The ratio of the population of acylated dinucleotides to the population of acylated nucleosides is evaluated in the same way in order to evaluate the percentage of functionalisation on the 3′ terminal end.
The functionalisation rate values, presented within the framework of this invention, take into account the correction factor which must be applied according to the molar extinction coefficient at 260 nm of each of the nucleosides and according to whether they are nucleosides or dinucleotides. […]

[2] = Solubility in water
[3] = system: ODN with 53 bases; experiment: RNA vs DNA chemoselectivity: functionalisation of an ODN with 53 bases; assay type: biochemical; conditions: compound 30 mM, DMSO/TEAAc buffer 25/75 (250 mM pH 7), 1 h at 65° C.
Procedure: After precipitation with acetone and hydrolysis with nuclease P1 and alkaline phosphatase, the hydrolysed fragments are analysed by LC-MS, as described in example 3. An example of the chromatograms monitoring the reaction of ODN or ORN with compound 13 is shown in FIG. 9, in which graphs A, B and C respectively represent ORN, ORN functionalised with compound 13 and precipitated, and ORN functionalised with 13, precipitated and hydrolysed. Graphs D, E and F represent the same thing, but with ODN.

[4] = system: in vitro RNA transcripts; experiment: Detection on Affymetrix DNA chip of biotinylated in vitro RNA transcripts; set-up: species or system human; conditions: 30 mM compound, 60 mins at 65° C.; background in the order of 30 RFU
Procedure: The in vitro transcripts are generated by in vitro transcription of the total RNA extracted from blood samples with the aid of the MessageAmp II kit (Reference AM 1751, AMBION, Austin, Tex.). Briefly, after extraction of the total RNA from the blood cells, a first reverse transcription step by the enzyme […] is performed in order to generate the DNA strand complementary to the mRNA (cDNA). The RNA strand is then digested by the RNase H before forming the double strand of cDNA by means of a DNA polymerase. Finally, the antisense RNA (in vitro transcripts) is obtained from the cDNA using the transcriptase T7.
17.6 μL of previously obtained solution of in vitro RNA transcripts (568 ng/μl), 9.4 μL of ultrapure water and 3 μL of 100 mM Zn(OAc)2 pH 6.5 is mixed. This solution is then incubated for 15 mins at 70° C., and then placed immediately into ice.
30 μL of this solution is sampled, to which there is added 30 μL of a potassium phosphate solution (pH 7, 1M), 30 μL of ultrapure water and 30 μl of the compound SBiot IA Me (9) in a 120 mM solution in DMSO. […]
The excess reagent is then removed in the same way as in example 7 by precipitation with isopropanol. As well as depositing on an Affymetrix chip GeneChip Human Genome U133 Plus 2.0 Array, ref 900470, Affymetrix, St Clara, USA), the detection and measurement of the fluorescence.

[5] = physchem; conditions: water

Fr (corrected functionalisation rate) [1] | External/internal regiospecificity (uncorrected ratio of areas acylated mononucleosides / acylated dinucleotides) [1] | solubility [2] | SMILES | corrected functionalisation rate of the ODN [3] | fluorescence intensities compared with background noise of unfunctionalised target IVTs [4] | solubility [5]
3.3% | 62/38 | 19 mM (≈ 12.4 mg/mL) | O=C(CCCCC1SCC2NC(=O)NC21)NCCOCCOCCOCCOCCC(=O)Nc1ccc2[nH]c(=O)oc(=O)c2c1 (stereo not shown) [5Biot PEG4 IA 6, 5-biotin-hexyl ethylene glycol-isatoic anhydride] | – | – | –
0.7% | 49/51 | – | O=C(CCCCCn1c(=O)oc(=O)c2ccccc21)NCCCOCCOCCOCCCNC(=O)CCCCC1SCC2NC(=O)NC21 (stereo not shown) [N(Biot PEG4) IA 21, N-(N-(biotin-dPEG3-propyl)-6-bromohexanamide) isatoic anhydride] | – | – | –
1.2% | – | 1 mM (≈ 0.404 mg/mL) | O=C(CCCCC1SCC2NC(=O)NC21)Nc1ccc2[nH]c(=O)oc(=O)c2c1 (stereo not shown) [5Biot IA 5, 5-biotin-isatoic anhydride] | – | – | –
1.2% | 50/50 | – | CC(=O)Nc1ccc2c(c1)c(=O)oc(=O)n2CC(=O)NCCOCCOCCNC(=O)CCCCC1SCC2NC(=O)NC21 (stereo not shown) [N(Biot PEG2) acetamido IA 19, 1-biotin-diethyleneglycol-5-acetamido-isatoic anhydride] | – | – | –
2.6% | 55/45 | – | Cn1c(=O)oc(=O)c2cc(NC(=O)CCCCC3SCC4NC(=O)NC43)ccc21 (stereo not shown) [5Biot IA Me 9, 1-Methyl-5 biotin-isatoic anhydride] | 0.1% | very substantially greater than the background noise | –
1.6% | 60/40 | – | O=C(CCCCC1SCC2NC(=O)NC21)Nc1ccc2c(c1)c(=O)oc(=O)n2CCCS(=O)(=O)O (stereo not shown) [5Biot IA SO3^− 10, 1-propylsulfone-5-biotin-isatoic anhydride] | – | – | –
4% | 60/40 | 50 mM (≈ 33.3 mg/mL) | Cn1c(=O)oc(=O)c2cc(NC(=O)CCOCCOCCOCCOCCNC(=O)CCCCC3SCC4NC(=O)NC43)ccc21 (stereo not shown) [5Biot PEG4 IA Me 11, 1-methyl-5-biotin-hexyl ethylene glycol-isatoic anhydride] | – | – | –
3.4% | 56/44 | – | O=C(CCCCC1SCC2NC(=O)NC21)NCCOCCOCCNC(=O)Cn1c(=O)oc(=O)c2ccccc21 (stereo not shown) [N(Biot PEG2)IA 18, 1-biotin-ethylene glycol-isatoic anhydride] | – | – | –

SMILES | Fr (corrected functionalisation rate) [1] | External/internal regiospecificity (uncorrected ratio of areas acylated mononucleosides / acylated dinucleotides) [1] | solubility [2] | corrected functionalisation rate of the ODN [3] | fluorescence intensities compared with background noise of unfunctionalised target IVTs [4] | solubility [5]
O=C(CCCCC1SCC2NC(=O)NC21)NCCOCCOCCOCCOCCC(=O)NCCSSCCC(=O)Nc1ccc2[nH]c(=O)oc(=O)c2c1 (stereo not shown) [5Biot PEG4 SS IA 23] | 3.1% | 52/48 | – | – | – | –
CCN1/C(=C\C=C\C2=[N+](CCCCCC(=O)Nc3ccc4[nH]c(=O)oc(=O)c4c3)c3ccc(S(=O)(=O)[O-])cc3C2(C)C)C(C)(C)c2cc(S(=O)(=O)O)ccc21 [Cy3 IA 7, 5-Cy3 isatoic anhydride] | 2.6% | 61/39 | – | – | – | > 100 mM
